Reference: paper PMC9313321 (Biomedicines, 2022)
“Also recorded” adds a separate entry of the source.

What was measured:
[1] = tested on: SH-SY5Y cells; experiment: Neuroprotection against Aβ42-induced toxicity (MTT reduction); assay type: cell-based, human; details: 1 h pre-incubation + 24 h with Aβ42 1 µM, 4d at 3 µM
Procedure: (§1) SH-SY5Y human neuroblastoma cells (ATCC-CRL-2266) were kept in culture using Dulbecco’s Modified Eagle Medium (DMEM) (Gibco-Invitrogen, Life Technologies Ltd., Waltham, MA, USA) containing 10% heat-inactivated fetal bovine serum (FBS), 50 U mL^−1 penicillin and 50 μg mL^−1 streptomycin. Incubation of the cells occurred at 37 °C in 5% CO2. The toxicity of the compounds was tested through cell viability assays, with cells seeded with a density of 0.24 × 10^6 cells mL^−1. DMSO was used to dissolve each tested compound (4a–4d, 5a, 5b), affording stock solutions with concentrations of 25 mM. Aliquots of these solutions were stored at −20 °C. Concentrations from 1 μM to 10 μM were screened in order to select the highest non-toxic concentration of each compound. Consequently, compounds 4a, 4b and 5b were tested at 1 μM final concentration; compounds 4c and 5a were tested at 2 μM final concentration; compound 4d was tested at a final concentration of 3 μM. The DMSO concentrations in the culture media were lower than 0.05% (v/v) and the viability of the SH-SY5Y cells was not altered in a detectable manner. […]
(§2) The colorimetric MTT (3-(4,5-dimethylthiazol-2-yl)-2,5-diphenyltetrazolium bromide) reduction assay was used to determine cell viability. […] The absorbance of each well was measured at 570 nm. […]
(§3) All data were expressed as means ± SEMs of at least five independent experiments performed in duplicate. […]

[2] = tested on: SH-SY5Y cells; experiment: Neuroprotection against Fe/Ascorbate toxicity (MTT reduction); assay type: cell-based, human; details: 1 h pre-incubation + 24 h with Fe 2.5 mM/Asc 5 mM, 5a at 2 µM
Procedure: as §1, §2, §3

SMILES | Neuroprotective effect against Aβ42-induced toxicity (cell viability, MTT) [1] | Neuroprotective effect against Fe/Ascorbate toxicity (cell viability, MTT) [2]
CCN(C)C(=O)Oc1ccc(CCCNC(=O)c2ccc3nc(-c4ccccc4O)[nH]c3c2)cc1 [Compound 4d, 4-(3-(2-(2-Hydroxyphenyl)-1H-benzo[d]imidazole-6-carboxamido)propyl) Phenyl Ethylmethylcarbamate] | significantly prevented Aβ-induced cell toxicity; also recorded: best neuroprotective capacities | –
CCN(C)C(=O)Oc1cccc(NC(=O)c2cccc3[nH]c(-c4ccccc4O)nc23)c1 [Compound 5a, 3-(2-(2-Hydroxyphenyl)-1H-benzo[d]imidazole-4-carboxamido)phenyl Ethylmethylcarbamate] | – | statistically significant neuroprotective effect; also recorded: best neuroprotective capacities
